Measurements from PMC12948223, “HSP70 Interactome‐Mediated Proteolysis Targeting Chimera (HSP70‐PROTAC) for Ferroptosis‐Driven Cancer Treatment” (Advanced Science, 2025).

Legend:
[1] = target: T1, Hsc70 in the presence of GPX4 protein (Homo sapiens, UniProt P11142+P36969); test: SPR ternary-complex binding (GDAz-3 preincubated with GPX4, Hsc70 immobilized)
T1 construct: purchased MedChemExpress (Hsc70); Cayman (GPX4) HY-P73915A; 26 906
Experimental: The SPR data was generated by our Shared Instrumentation Core Facility at the Hangzhou Institute of Medicine (HIM), Chinese Academy of Sciences. The in vitro binding affinity of compound GDAz‐3 to recombinant proteins (Hsc70, MedChemExpress, #HY‐P73915A; GPX4, Cayman, Item No. 26 906) was evaluated using a Biacore 8K system (Cytiva (GE)) with the method of LMW multi‐cycle kinetics/affinity. Pipelines and chips were flushed with PBS (pH 7.4) running buffer, and then, human Hsc70 was immobilized on a CM5 sensor chip. Analysis was performed at a flow rate of 30 µL min^−1 at 25 °C with the injection of incremental concentrations of compounds dissolved in buffer solution (the final concentration of DMSO was 5%). For ternary‐complex binding measurements, Hsc70 was immobilized on a CM5 sensor chip, and compound GDAz‐3 at a concentration of 1 µM was preincubated with GPX4. The binding and dissociation durations were recorded as response unit values for 120 and 120 s in succession, respectively. Finally, the data were analyzed by Biacore evaluation software with the method of LMW multi‐cycle kinetics/affinity.

[2] = tested on: SLC7A11; test: Western blot of SLC7A11 in HT1080 cells; type: cell-based, human; settings: 24 h
[3] = target: T2, GPX4 (Homo sapiens, UniProt P36969); test: GPX4 degradation by western blot in 786-O cells; type: cell-based; design: endogenous in cells; host or cells: 786-O; settings: 24 h
T2 sequence (P36969 1-170 isoform P36969-2): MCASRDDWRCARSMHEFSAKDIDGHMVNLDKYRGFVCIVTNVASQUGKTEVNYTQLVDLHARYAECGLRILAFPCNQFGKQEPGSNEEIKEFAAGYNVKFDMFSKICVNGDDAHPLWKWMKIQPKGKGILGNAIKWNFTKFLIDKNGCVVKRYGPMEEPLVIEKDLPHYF
Excerpt: As previously mentioned, drug resistance and limited application scope are the significant challenges of traditional PROTAC, due partly to CRBN/VHL mutations or low expression. In this study, we investigated whether the developed HSP70‐PROTAC could address these challenges. Specifically, we examined the developed HSP70‐PROTAC in scenarios where VHL‐ or CRBN‐based PROTACs are ineffective due to intrinsic or acquired resistance. Several previously reported representative GPX4‐targeting degraders, including dGPX4 (CRBN‐based PROTAC, Figure 1A), 8e (VHL‐based PROTAC, Figure 1B), and GDCNF‐11/2 (HSP90‐based HIM‐PROTAC, Figure 1C, the structure of the GDCNF‐11 derivative GDCNF‐2 was not shown) were selected as control agents.^[ [18], [23], [28] ^] […] The clear cell renal cell carcinoma (ccRCC) 786‐O cell line is a well‐established cancer cell model characterized by an intrinsic deficiency in VHL expression.^[ [43], [44], [45] ^] We also confirmed this characteristic through evaluating the VHL expression levels in several randomly selected cancer cell lines (Figure S10A, Supporting Information). We further selected 786‐O cells as a model to confirm whether HSP70‐PROTAC could be used in such cases as an alternative to VHL‐based degraders, because VHL‐based PROTACs cannot be used to treat kidney cancer with a mutation or deletion in the VHL gene.
Cells were seeded at a density of 4 × 10^5 cells well^−1 in 6‐well plates and allowed to incubate overnight. Cells were incubated with the indicated treatments. Thereafter, the cells were collected and lysed with RIPA buffer containing serine protease and phosphatase inhibitors for 30 min on ice. Proteins were quantified by using a BCA protein assay kit (Beyotime). Subsequently, SDS‐PAGE sample loading buffer was added, and the mixture was heated in a 100 °C metal bath for 10 min to denature the proteins. Protein samples from each group were separated by SDS‐PAGE gel and transferred to a PVDF membrane. After blocking with 5% skim milk for 1 h at room temperature, primary antibodies (GPX4: abcam (#ab125066, 1:1000); Hsp70: abcam (#ab2787, 1:1000); CHIP: HUABIO (#ST7108, 1:1000); UpingBio Technology Co., Ltd. (BRD4, #YP‐Ab‐18034, 1:1000; BAG‐1, #YP‐Ab‐00575, 1:1000); GAPDH: Proteintech (#60004‐1‐Ig, 1:50 000)) were used and incubated at 4 °C overnight on a rotary shaker. After washing the membranes with TBST buffer five times, the membranes were incubated with a second antibody (Cell Signaling Technology, #7074S, 1:1000 and #7076S, 1:1000) at room temperature for 2 h. Ultimately, the membrane was washed five times, and the antibody‐protein complexes were visualized using an ECL luminescence reagent (Biosharp, Shanghai, China). The relative intensities of the bands were analyzed by ImageJ and normalized to a loading control.

T1 sequence (P11142 whole entry, one chain of several): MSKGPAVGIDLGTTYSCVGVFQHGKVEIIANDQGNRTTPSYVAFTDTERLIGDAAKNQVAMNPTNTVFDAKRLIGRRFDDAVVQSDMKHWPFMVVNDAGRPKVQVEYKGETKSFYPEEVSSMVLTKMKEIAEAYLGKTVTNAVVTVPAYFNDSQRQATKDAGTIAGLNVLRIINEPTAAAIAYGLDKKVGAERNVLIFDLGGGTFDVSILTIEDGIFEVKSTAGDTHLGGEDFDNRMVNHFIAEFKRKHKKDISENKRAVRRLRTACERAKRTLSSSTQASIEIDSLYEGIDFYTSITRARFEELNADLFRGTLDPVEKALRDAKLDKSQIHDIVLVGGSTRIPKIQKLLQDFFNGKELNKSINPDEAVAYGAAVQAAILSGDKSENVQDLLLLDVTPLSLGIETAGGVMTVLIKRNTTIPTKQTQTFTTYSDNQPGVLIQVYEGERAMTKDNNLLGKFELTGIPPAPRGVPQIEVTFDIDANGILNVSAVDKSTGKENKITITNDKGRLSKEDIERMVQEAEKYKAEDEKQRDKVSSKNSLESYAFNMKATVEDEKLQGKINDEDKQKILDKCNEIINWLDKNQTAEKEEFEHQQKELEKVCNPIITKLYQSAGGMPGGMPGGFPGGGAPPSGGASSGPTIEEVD

In the case of COc1ccc(-c2nc(-c3cc(C(F)(F)F)cc(C(F)(F)F)c3)n(Cc3ccc(C(=O)NCCOCCOCCOCCn4cc(COc5ccc(N(C(=O)CCl)C(C(=O)NCCc6ccccc6)c6cccs6)cc5Cl)nn4)cc3)c2-c2ccc(OC)cc2)cc1 (stereo not shown) [GDAz-3, 4-((2-(3,5-bis(trifluoromethyl)phenyl)-4,5-bis(4-methoxyphenyl)-1H-imidazol-1-yl)methyl)-N-(2-(2-(2-(2-(4-((2-chloro-4-(2-chloro-N-(2-oxo-2-(phenethylamino)-1-(thiophen-2-yl)ethyl)acetamido)phenoxy)methyl)-1H-1,2,3-triazol-1-yl)ethoxy)ethoxy)ethoxy)ethyl)benzamide], the Kd ([1]; SPR, 1 µM GDAz-3 preincubated with GPX4, immobilized Hsc70) is reported as 23.9 nM, the “Cooperativity (α)” value ([1]; ternary complex Hsc70/GDAz-3/GPX4) is reported as 0.75 and the “Effect on SLC7A11 protein” value [2] is reported as “did not show a significant effect”. The “GPX4 degradation in 786-O cells” value ([3]; 0.5 µM) was “obvious GPX4 degradation”, the remaining activity at 0.1 µM ([3]; 786-0, 786-O cell line, 0.1 µM, read-out: GPX4 % of control) was 89% and the remaining activity at 0.5 µM ([3]; 786-0, 786-O cell line, 0.5 µM, read-out: GPX4 % of control) was 54%. For the same compound, the remaining activity at 1 µM ([3]; 786-0, 786-O cell line, 1 µM, read-out: GPX4 % of control) was 33%.
